# According to publication PMC9186362, “Design and biological evaluation of substituted 5,7-dihydro-6H-indolo[2,3-c]quinolin-6-one as novel selective Haspin inhibitors” (Journal of Enzyme Inhibition and Medicinal Chemistry, 2022):
# Key:
# HsCdk5/p25 = HsCdk5/p25 (Homo sapiens, UniProt Q00535); assay: ADP-Glo kinase assay; type: biochemical, Homo sapiens (Hs); conditions: mean n = 2, % of maximum activity of DMSO control, read-out: % Residual activity at 1 μM CDK5
# Experimental: (§1) Kinase activities were determined using the ADP-Glo methodology (ADP-Glo Kinase Assay; Promega) according to the assay described by Nguyen et al.[32] except for MmCLK1. The later was assayed in the following buffer: 10 mM MgCl2, 1 mM EGTA, 1 mM DTT, 25 mM Tris-HCl pH 7.5, 50 µg/ml heparin, 0.15 mg/ml BSA, with 0.027 µg/µl of the following peptide: GRSRSRSRSRSR as substrate.
# HsPIM1 = HsPIM1 (Homo sapiens, UniProt P11309); assay: ADP-Glo kinase assay; type: biochemical, Homo sapiens (Hs); conditions: mean n = 2, % of maximum activity of DMSO control, read-out: % Residual activity at 1 μM PIM1
# Experimental: as §1
# HsCdk9/Cyc E = HsCdk9/Cyc E (Homo sapiens, UniProt P50750); assay: ADP-Glo kinase assay; type: biochemical, Homo sapiens (Hs); conditions: mean n = 2, % of maximum activity of DMSO control, read-out: % Residual activity at 1 μM CDK9
# Experimental: as §1
# HsGSK3β = HsGSK3β (Homo sapiens, UniProt P49841); assay: ADP-Glo kinase assay; type: biochemical, Homo sapiens (Hs); conditions: mean n = 2, % of maximum activity of DMSO control, read-out: % Residual activity at 1 μM GSK3β
# Experimental: as §1
# HsCdk2/Cyc A = HsCdk2/Cyc A (Homo sapiens, UniProt P24941); assay: ADP-Glo kinase assay; type: biochemical, Homo sapiens (Hs); conditions: mean n = 2, % of maximum activity of DMSO control, read-out: % Residual activity at 1 μM CDK2
# Experimental: as §1
# HsHaspin = molecular target: T1, HsHaspin (Homo sapiens, UniProt Q8TF76); assay: ADP-Glo kinase assay; type: biochemical, Homo sapiens (Hs); conditions: for remaining activity at 1 µM: mean n = 2, % of maximum activity of DMSO control, read-out: % Residual activity at 1 μM Haspin; for IC50: dose-response curve, each point in duplicate, read-out: Kinase inhibition (IC50) Haspin
# T1 sequence (Q8TF76 1-798): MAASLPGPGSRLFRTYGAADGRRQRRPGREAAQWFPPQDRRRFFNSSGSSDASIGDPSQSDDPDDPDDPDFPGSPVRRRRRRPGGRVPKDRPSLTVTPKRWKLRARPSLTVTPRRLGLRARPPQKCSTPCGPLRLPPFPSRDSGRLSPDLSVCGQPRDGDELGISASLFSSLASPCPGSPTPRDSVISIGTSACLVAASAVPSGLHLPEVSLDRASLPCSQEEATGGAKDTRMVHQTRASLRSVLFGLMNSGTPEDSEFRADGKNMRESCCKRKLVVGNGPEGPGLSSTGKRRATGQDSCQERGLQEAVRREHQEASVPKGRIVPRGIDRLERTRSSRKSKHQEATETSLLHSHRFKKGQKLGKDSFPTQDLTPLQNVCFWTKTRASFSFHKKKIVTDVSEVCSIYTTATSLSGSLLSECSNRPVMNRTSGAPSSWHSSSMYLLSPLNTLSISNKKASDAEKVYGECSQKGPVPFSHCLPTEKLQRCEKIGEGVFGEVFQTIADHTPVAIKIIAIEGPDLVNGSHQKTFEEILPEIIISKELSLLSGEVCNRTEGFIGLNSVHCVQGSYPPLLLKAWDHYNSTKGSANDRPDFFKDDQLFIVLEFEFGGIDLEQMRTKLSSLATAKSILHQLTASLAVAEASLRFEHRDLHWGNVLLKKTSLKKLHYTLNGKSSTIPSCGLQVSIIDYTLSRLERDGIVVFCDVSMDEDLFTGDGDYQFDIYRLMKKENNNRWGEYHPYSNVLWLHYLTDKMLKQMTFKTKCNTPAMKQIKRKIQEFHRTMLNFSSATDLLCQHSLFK
# Experimental: as §1
# MmCLK1 = MmCLK1 (Mus musculus, UniProt P22518); assay: ADP-Glo kinase assay; type: biochemical, Mus musculus (Mm); conditions: for remaining activity at 1 µM: mean n = 2, % of maximum activity of DMSO control, read-out: % Residual activity at 1 μM CLK1; for Selectivity index CLK1/Haspin: IC50 CLK1/IC50 Haspin; for IC50: dose-response curve, each point in duplicate, read-out: Kinase inhibition (IC50) CLK1
# Experimental: as §1
# RPE1 cell line = assay: Cell viability MTS assay, dose-response; type: cell-based; conditions: Homo sapiens, RPE-1; 48 h, MTS assay in triplicate, doses up to 50 µM
# Experimental: (§2) HCT116 cells were cultured in McCoy’s medium. SH-SY5Y, MDA-MB231 and U-2 OS cells were cultured in Dulbecco's modified Eagle's medium (DMEM) and hTERT RPE-1 cells in DMEM:F12 medium. All media were supplemented with 10% foetal calf serum and cells were cultured at 37 °C in a 5% CO2 humidified atmosphere.
# (§3) Cell viability was then assessed using the CellTiter96 AQueous cell proliferation assay from Promega according to the manufacturer’s instructions. Each experiment was done in triplicate and EC50 were determined from the dose-response curves according to the signal given by the control (0.1% DMSO) set at 100% viability using Prism GraphPad software.
# U-2 OS cell line = assay: Cell viability MTS assay, dose-response; type: cell-based; conditions: Homo sapiens, U2OS; 48 h, MTS assay in triplicate, doses up to 50 µM
# Experimental: as §2, §3
# RnDYRK1A = RnDYRK1A (Rattus norvegicus, UniProt Q63470); assay: ADP-Glo kinase assay; type: biochemical, Rattus norvegicus (Rn); conditions: for Selectivity index DYRK/Haspin: IC50 DYRK1A/IC50 Haspin; for IC50: dose-response curve, each point in duplicate, read-out: Kinase inhibition (IC50) DYRK1A; for remaining activity: mean n = 2, % of maximum activity of DMSO control, read-out: % Residual activity at 1 μM DYRK1A
# Experimental: as §1
# [1] = system: U-2 OS, HCT116, MDA-MB231, SH-SY5Y and RPE-1 cell lines; assay: Cell viability primary screen at 25 μM; type: cell-based, human; conditions: 48 h; for Effect on cell viability, primary screen: all tested cell lines
# Experimental: as §2, §3
# HsCdk5/p25, sequence (Q00535 whole entry): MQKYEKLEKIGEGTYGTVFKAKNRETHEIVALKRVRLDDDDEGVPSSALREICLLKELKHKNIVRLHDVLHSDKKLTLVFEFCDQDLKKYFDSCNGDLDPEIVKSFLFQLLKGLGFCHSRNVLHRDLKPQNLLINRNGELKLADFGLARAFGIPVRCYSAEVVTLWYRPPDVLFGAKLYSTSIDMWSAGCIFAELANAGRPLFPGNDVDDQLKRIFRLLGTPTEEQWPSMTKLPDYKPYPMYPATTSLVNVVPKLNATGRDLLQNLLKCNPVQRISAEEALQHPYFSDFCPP
# HsCdk5/p25, sequence (Q15078 99-307 partner limits assumed): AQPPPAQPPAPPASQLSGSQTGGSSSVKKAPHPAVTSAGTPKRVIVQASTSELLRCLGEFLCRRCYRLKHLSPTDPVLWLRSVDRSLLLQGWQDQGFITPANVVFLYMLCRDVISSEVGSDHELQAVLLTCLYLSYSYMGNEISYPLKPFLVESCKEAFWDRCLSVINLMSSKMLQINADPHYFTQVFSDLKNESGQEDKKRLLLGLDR
# MmCLK1, sequence (P22518 whole entry): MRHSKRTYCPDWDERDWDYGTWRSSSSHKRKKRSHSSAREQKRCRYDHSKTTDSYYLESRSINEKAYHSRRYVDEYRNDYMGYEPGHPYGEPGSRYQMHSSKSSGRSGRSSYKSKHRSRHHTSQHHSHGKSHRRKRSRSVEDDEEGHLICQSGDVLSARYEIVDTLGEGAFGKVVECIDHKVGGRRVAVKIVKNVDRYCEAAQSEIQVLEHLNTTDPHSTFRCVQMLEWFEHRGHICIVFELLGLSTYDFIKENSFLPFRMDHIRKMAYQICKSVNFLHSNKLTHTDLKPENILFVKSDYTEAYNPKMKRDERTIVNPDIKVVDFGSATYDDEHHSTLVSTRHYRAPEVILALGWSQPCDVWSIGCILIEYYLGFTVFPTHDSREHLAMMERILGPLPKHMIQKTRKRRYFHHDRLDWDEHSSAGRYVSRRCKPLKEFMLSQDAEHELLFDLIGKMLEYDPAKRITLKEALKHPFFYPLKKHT
# HsGSK3β, sequence (P49841 whole entry): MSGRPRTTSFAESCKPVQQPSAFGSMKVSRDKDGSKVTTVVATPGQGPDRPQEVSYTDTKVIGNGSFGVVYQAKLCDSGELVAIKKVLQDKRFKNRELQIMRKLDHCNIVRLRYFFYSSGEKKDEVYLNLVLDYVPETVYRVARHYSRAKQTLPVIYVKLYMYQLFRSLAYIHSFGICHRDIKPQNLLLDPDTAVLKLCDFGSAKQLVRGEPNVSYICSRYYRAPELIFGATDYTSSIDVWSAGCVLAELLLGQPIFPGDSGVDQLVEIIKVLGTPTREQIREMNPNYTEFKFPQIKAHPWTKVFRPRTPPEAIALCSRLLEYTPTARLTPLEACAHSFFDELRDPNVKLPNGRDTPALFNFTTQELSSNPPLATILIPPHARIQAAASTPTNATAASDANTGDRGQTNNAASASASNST
# HsPIM1, sequence (P11309 whole entry): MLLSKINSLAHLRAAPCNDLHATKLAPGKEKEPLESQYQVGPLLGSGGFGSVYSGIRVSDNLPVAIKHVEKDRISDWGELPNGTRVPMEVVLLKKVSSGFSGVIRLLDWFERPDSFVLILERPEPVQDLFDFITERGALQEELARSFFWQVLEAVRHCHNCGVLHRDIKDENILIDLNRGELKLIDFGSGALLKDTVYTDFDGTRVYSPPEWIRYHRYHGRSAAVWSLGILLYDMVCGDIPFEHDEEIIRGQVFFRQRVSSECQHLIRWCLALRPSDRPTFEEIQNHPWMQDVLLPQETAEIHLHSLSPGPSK
# HsCdk9/Cyc E, sequence (P50750 whole entry): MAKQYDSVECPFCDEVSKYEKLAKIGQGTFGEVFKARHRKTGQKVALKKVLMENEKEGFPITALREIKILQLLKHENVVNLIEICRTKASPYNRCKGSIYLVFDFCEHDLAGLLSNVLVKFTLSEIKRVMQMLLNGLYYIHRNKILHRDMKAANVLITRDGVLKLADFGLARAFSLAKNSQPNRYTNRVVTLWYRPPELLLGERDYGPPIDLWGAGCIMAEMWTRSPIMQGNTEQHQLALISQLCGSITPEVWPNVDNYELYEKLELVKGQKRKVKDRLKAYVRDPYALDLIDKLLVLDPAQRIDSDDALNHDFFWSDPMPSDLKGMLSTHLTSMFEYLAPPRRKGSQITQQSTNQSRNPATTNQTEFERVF
# HsCdk9/Cyc E, sequence (O60563 whole entry partner): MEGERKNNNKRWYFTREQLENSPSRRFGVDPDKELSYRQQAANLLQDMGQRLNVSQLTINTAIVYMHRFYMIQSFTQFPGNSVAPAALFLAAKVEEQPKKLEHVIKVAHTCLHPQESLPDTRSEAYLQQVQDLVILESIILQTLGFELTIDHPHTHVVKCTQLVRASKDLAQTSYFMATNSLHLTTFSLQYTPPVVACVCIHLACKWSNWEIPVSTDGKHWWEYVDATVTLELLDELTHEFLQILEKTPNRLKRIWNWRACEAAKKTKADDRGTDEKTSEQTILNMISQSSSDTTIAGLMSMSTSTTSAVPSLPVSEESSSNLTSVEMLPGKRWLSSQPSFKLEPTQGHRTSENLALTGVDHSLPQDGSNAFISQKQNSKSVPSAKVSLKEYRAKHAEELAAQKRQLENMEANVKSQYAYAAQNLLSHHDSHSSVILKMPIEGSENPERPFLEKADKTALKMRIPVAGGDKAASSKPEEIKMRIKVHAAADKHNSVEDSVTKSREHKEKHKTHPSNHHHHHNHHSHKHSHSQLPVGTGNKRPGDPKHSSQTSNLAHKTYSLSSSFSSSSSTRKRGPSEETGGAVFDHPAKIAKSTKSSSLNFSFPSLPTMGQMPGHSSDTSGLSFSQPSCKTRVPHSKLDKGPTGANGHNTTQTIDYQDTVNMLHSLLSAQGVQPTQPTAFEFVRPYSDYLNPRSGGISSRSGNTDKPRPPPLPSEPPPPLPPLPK
SMILES,remaining activity at 1 µM (HsCdk5/p25) [%],remaining activity at 1 µM (HsPIM1) [%],remaining activity at 1 µM (HsCdk9/Cyc E) [%],remaining activity at 1 µM (HsGSK3β) [%],remaining activity at 1 µM (HsCdk2/Cyc A) [%],remaining activity at 1 µM (HsHaspin) [%],IC50 (HsHaspin) [nM],remaining activity at 1 µM (MmCLK1) [%],Selectivity index CLK1/Haspin (MmCLK1),IC50 (MmCLK1) [nM],Selectivity index DYRK/Haspin (RnDYRK1A),IC50 (RnDYRK1A) [nM],remaining activity (RnDYRK1A) [%],melting point [°C],EC50 (RPE1 cell line) [nM],EC50 (U-2 OS cell line) [nM],"Effect on cell viability, primary screen [1]",Reduction of cell viability compared to the DMSO control [1] [%]
"COc1ccc2[nH]c(=O)c3[nH]c4ccccc4c3c2c1 [Compound 46, 2-Methoxy-5,7-dihydro-6H-indolo[2,3-c]quinolin-6-one]",78,32,62,86,80,6,7,13,7,51,10,68,18,> 250,> 25000,> 25000,little to no effect,
"O=c1[nH]c2ccc(O)cc2c2c1[nH]c1ccccc12 [Compound 48, 2-Hydroxy-5,7-dihydro-6H-indolo[2,3-c]quinolin-6-one]",87,63,49,100,84,1,6,4,3,17,3,19,12,235 to 238,7300,7000,,≥ 75
"COc1ccc2[nH]c3c(=O)[nH]c4ccccc4c3c2c1 [Compound 49, 10-Methoxy-5,7-dihydro-6H-indolo[2,3-c]quinolin-6-one]",77,41,40,39,73,2,1,5,,13,,15,7,232 to 235,> 25000,> 25000,little to no effect,
"COc1ccc2c(c1)[nH]c(=O)c1[nH]c3ccc(OC)cc3c12 [Compound 50, 3,10-Dimethoxy-5,7-dihydro-6H-indolo[2,3-c]quinolin-6-one]",81,19,51,44,77,3,7,10,13,88,28,196,5,192 to 195,20800,4300,,≥ 75

# Continued, in another order:
remaining activity at 1 µM (HsCdk5/p25) [%],remaining activity at 1 µM (HsPIM1) [%],remaining activity at 1 µM (HsCdk9/Cyc E) [%],remaining activity at 1 µM (HsGSK3β) [%],remaining activity at 1 µM (HsCdk2/Cyc A) [%],remaining activity at 1 µM (HsHaspin) [%],IC50 (HsHaspin) [nM],remaining activity at 1 µM (MmCLK1) [%],Selectivity index CLK1/Haspin (MmCLK1),IC50 (MmCLK1) [nM],Selectivity index DYRK/Haspin (RnDYRK1A),IC50 (RnDYRK1A) [nM],remaining activity (RnDYRK1A) [%],melting point [°C],SMILES,EC50 (RPE1 cell line) [nM],EC50 (U-2 OS cell line) [nM],"Effect on cell viability, primary screen [1]",Reduction of cell viability compared to the DMSO control [1] [%]
70,36,33,29,62,1,4,5,3,10,10,41,14,190 to 192,"COc1ccc2[nH]c(=O)c3[nH]c4ccc(OC)cc4c3c2c1 [Compound 51, 2,10-Dimethoxy-5,7-dihydro-6H-indolo[2,3-c]quinolin-6-one]",> 25000,12600,little to no effect,
59,9,18,48,35,0,4,11,21,82,24,97,2,227 to 230,"COc1ccc2[nH]c3c(=O)[nH]c4cc(O)ccc4c3c2c1 [Compound 54, 3-Hydroxy-10-methoxy-5,7-dihydro-6H-indolo[2,3-c]quinolin-6-one]",> 25000,> 25000,little to no effect,
79,65,37,39,72,2,14,3,15,213,16,226,7,> 250,"COc1ccc2[nH]c3c(=O)[nH]c4ccc(N)cc4c3c2c1 [Compound 56, 2-Amino-10-methoxy-5,7-dihydro-6H-indolo[2,3-c]quinolin-6-one]",> 25000,> 25000,little to no effect,
91,38,41,71,57,0,5,2,16,78,21,104,9,240 to 243,"O=c1[nH]c2ccc(O)cc2c2c1[nH]c1ccc(F)cc12 [Compound 61, 10-Fluoro-2-Hydroxy-5,7-dihydro-6H-indolo [2,3-c]quinolin-6-one]",19100,8700,,≥ 75
